Experimental data: US20070082880A1 (priority 2005, published 2007)

molecular target: T1, human PKCθ full length enzyme (Homo sapiens, UniProt Q04759); test: PKCθ IMAP Assay; format: biochemical; conditions: average value when one or more samples were tested; ATP 6 uM, PKCθ 1 nM
T1 construct: human PKCθ full length enzyme (Panvera Catalog No. P2996); purchased Panvera P2996
Procedure, shortened: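 IMAP fluorescence polarization after 20 min with binding beads measured phosphorylation of 100 nM 5FAM-peptide. Reactions held 1 nM full-length human PKCθ, 6 uM ATP, 5% DMSO and DTT-containing buffer, 25 min at room temperature. Compounds tested as 2:1 serial dilutions; controls lacked ATP or enzyme.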

T1 sequence (Q04759 whole entry): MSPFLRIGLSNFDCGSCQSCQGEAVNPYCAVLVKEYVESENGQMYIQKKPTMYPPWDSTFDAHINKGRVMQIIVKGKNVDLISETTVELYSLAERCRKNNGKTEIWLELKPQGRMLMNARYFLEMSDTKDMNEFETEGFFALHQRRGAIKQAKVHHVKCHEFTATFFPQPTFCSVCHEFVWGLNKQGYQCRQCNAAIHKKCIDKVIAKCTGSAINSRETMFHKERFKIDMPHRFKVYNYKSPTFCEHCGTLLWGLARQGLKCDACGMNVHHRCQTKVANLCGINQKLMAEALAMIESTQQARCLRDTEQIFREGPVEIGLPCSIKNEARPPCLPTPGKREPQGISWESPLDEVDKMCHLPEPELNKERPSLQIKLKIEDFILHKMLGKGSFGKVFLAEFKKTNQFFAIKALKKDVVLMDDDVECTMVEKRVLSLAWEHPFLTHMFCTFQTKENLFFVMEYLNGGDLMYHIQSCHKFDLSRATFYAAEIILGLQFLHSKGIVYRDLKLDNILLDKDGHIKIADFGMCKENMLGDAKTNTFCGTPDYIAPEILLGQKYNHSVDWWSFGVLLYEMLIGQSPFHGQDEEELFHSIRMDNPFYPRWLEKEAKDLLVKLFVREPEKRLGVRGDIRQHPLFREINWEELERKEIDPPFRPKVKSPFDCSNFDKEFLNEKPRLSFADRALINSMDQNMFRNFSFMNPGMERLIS

| Compound | IC50 |
| --- | --- |
| Cc1c(Nc2c(C#N)cnc3sc(C(=O)N4CCN(C)CC4)cc23)ccc2[nH]ccc12 [Compound 256, 4-[(4-methyl-1H-indol-5-yl)amino]-2-[(4-methylpiperazin-1-yl)carbonyl]thieno[2,3-b]pyridine-5-carbonitrile] | 334 nM |
| Cc1c(Nc2c(C#N)cnc3sc(C(=O)Nc4ccncc4)cc23)ccc2[nH]ccc12 [Compound 257, 5-cyano-4-[(4-methyl-1H-indol-5-yl)amino]-N-pyridin-4-ylthieno[2,3-b]pyridine-2-carboxamide] | 25 nM |
| Cc1c(Nc2c(C#N)cnc3sc(C(=O)Nc4ccccc4)cc23)ccc2[nH]ccc12 [Compound 258, 5-cyano-4-[(4-methyl-1H-indol-5-yl)amino]-N-phenylthieno[2,3-b]pyridine-2-carboxamide] | 126 nM |
| Cc1c(Nc2c(C#N)cnc3sc(C(=O)NCc4ccccc4)cc23)ccc2[nH]ccc12 [Compound 259, N-benzyl-5-cyano-4-[(4-methyl-1H-indol-5-yl)amino]thieno[2,3-b]pyridine-2-carboxamide] | 155 nM |
| Cc1c(Nc2c(C#N)cnc3sc(C(=O)NCCc4ccccc4)cc23)ccc2[nH]ccc12 [Compound 260, 5-cyano-4-[(4-methyl-1H-indol-5-yl)amino]-N-(2-phenylethyl)thieno[2,3-b]pyridine-2-carboxamide] | 187 nM |
| Cc1c(Nc2c(C#N)cnc3sc(C(=O)N(C)C)cc23)ccc2[nH]ccc12 [Compound 261, 5-cyano-N,N-dimethyl-4-[(4-methyl-1H-indol-5-yl)amino]thieno[2,3-b]pyridine-2-carboxamide] | 222 nM |
| COCCNC(=O)c1cc2c(Nc3ccc4[nH]ccc4c3C)c(C#N)cnc2s1 [Compound 262, 5-cyano-N-(2-methoxyethyl)-4-[(4-methyl-1H-indol-5-yl)amino]thieno[2,3-b]pyridine-2-carboxamide] | 92 nM |
| Cc1c(Nc2c(C#N)cnc3sc(C(=O)Nc4cccnc4)cc23)ccc2[nH]ccc12 [Compound 263, 5-cyano-4-[(4-methyl-1H-indol-5-yl)amino]-N-pyridin-3-ylthieno[2,3-b]pyridine-2-carboxamide] | 71 nM |
| N#Cc1cnc2sc(C(=O)N3CCCC3)cc2c1Nc1cccc2[nH]ccc12 [Compound 264, 4-(1H-indol-4-ylamino)-2-(pyrrolidin-1-ylcarbonyl)thieno[2,3-b]pyridine-5-carbonitrile] | 669 nM |
| Cc1c(Nc2c(C#N)cnc3sc(C(=O)N4CCNCC4)cc23)ccc2[nH]ccc12 [Compound 265, 4-[(4-methyl-1H-indol-5-yl)amino]-2-(piperazin-1-ylcarbonyl)thieno[2,3-b]pyridine-5-carbonitrile] | 232 nM |
| Cc1c(Nc2c(C#N)cnc3sc(C(=O)NC4CCNCC4)cc23)ccc2[nH]ccc12 [Compound 266, 5-cyano-4-[(4-methyl-1H-indol-5-yl)amino]-N-piperidin-4-ylthieno[2,3-b]pyridine-2-carboxamide] | 44 nM |
| N#Cc1cnc2sc(CN3CCc4ccccc4C3)cc2c1Nc1ccc2[nH]ccc2c1 [Compound 268, 2-(3,4-dihydroisoquinolin-2(1H)-ylmethyl)-4-(1H-indol-5-ylamino)thieno[2,3-b]pyridine-5-carbonitrile] | 1250 nM |
| N#Cc1cnc2sc(CN3CCN(c4ccccc4)CC3)cc2c1Nc1ccc2[nH]ccc2c1 [Compound 269, 4-(1H-indol-5-ylamino)-2-[(4-phenylpiperazin-1-yl)methyl]thieno[2,3-b]pyridine-5-carbonitrile] | 4030 nM |
| C=C/C=C/c1cc2c(Nc3ccc4[nH]ccc4c3)c(C#N)cnc2s1 [Compound 270, 2-[(1E)-buta-1,3-dien-1-yl]-4-(1H-indol-5-ylamino)thieno[2,3-b]pyridine-5-carbonitrile] | 201 nM |
| Cc1c(Nc2c(C#N)cnc3sc(/C=C/CCN4CCN(C)CC4)cc23)ccc2[nH]ccc12 [Compound 272, 4-[(4-methyl-1H-indol-5-yl)amino]-2-[(1E)-4-(4-methylpiperazin-1-yl)but-1-en-1-yl]thieno[2,3-b]pyridine-5-carbonitrile] | 45 nM |
| Cc1c(Nc2c(C#N)cnc3sc(/C=C/CN4CCOCC4)cc23)ccc2[nH]ccc12 [Compound 275, 4-[(4-methyl-1H-indol-5-yl)amino]-2-[(1E)-3-morpholin-4-ylprop-1-en-1-yl]thieno[2,3-b]pyridine-5-carbonitrile] | 56 nM |
| Cc1c(Nc2c(C#N)cnc3sc(/C=C/CN4CCCC4)cc23)ccc2[nH]ccc12 [Compound 276, 4-[(4-methyl-1H-indol-5-yl)amino]-2-[(1E)-3-pyrrolidin-1-ylprop-1-en-1-yl]thieno[2,3-b]pyridine-5-carbonitrile] | 23 nM |
| CN1CCN(C/C=C/c2cc3c(Nc4ccc5[nH]ccc5c4)c(C#N)cnc3s2)CC1 [Compound 277, 4-(1H-indol-5-ylamino)-2-[(1E)-3-(4-methylpiperazin-1-yl)prop-1-en-1-yl]thieno[2,3-b]pyridine-5-carbonitrile] | 304 nM |
| Cc1c(Nc2c(C#N)cnc3sc(/C=C/CN4CCN(C)CC4)cc23)ccc2[nH]ccc12 [Compound 278, 4-[(4-methyl-1H-indol-5-yl)amino]-2-[(1E)-3-(4-methylpiperazin-1-yl)prop-1-en-1-yl]thieno[2,3-b]pyridine-5-carbonitrile] | 12 nM |
| Cc1c(Nc2c(C#N)cnc3sc(/C=C/CN4CCN(C)CC4)c(C)c23)ccc2[nH]ccc12 [Compound 279, 3-methyl-4-[(4-methyl-1H-indol-5-yl)amino]-2-[(1E)-3-(4-methylpiperazin-1-yl)prop-1-en-1-yl]thieno[2,3-b]pyridine-5-carbonitrile] | 17 nM |
| CCOC(=O)/C=C/c1cc2c(Nc3ccc4[nH]ccc4c3C)c(C#N)cnc2s1 [Compound 282, ethyl (2E)-3-{5-cyano-4-[(4-methyl-1H-indol-5-yl)amino]thieno[2,3-b]pyridin-2-yl}acrylate] | 23 nM |
| Cc1c(Nc2c(C#N)cnc3sc(/C=C/C(=O)OC(C)(C)C)cc23)ccc2[nH]ccc12 [Compound 286, tert-butyl (2E)-3-{5-cyano-4-[(4-methyl-1H-indol-5-yl)amino]thieno[2,3-b]pyridin-2-yl}acrylate] | 314 nM |
| N#Cc1cnc2sc(/C=C/C(=O)N3CCCC3)cc2c1Nc1ccc2[nH]ccc2c1 [Compound 288, 4-(1H-indol-5-ylamino)-2-[(1E)-3-oxo-3-pyrrolidin-1-ylprop-1-en-1-yl]thieno[2,3-b]pyridine-5-carbonitrile] | 130 nM |
| N#Cc1cnc2sc(/C=C/C(=O)NCCO)cc2c1Nc1ccc2[nH]ccc2c1 [Compound 289, (2E)-3-[5-cyano-4-(1H-indol-5-ylamino)thieno[2,3-b]pyridin-2-yl]-N-(2-hydroxyethyl)acrylamide] | 2070 nM |
| CN1CCN(C(=O)/C=C/c2cc3c(Nc4ccc5[nH]ccc5c4)c(C#N)cnc3s2)CC1 [Compound 290, 4-(1H-indol-5-ylamino)-2-[(1E)-3-(4-methylpiperazin-1-yl)-3-oxoprop-1-en-1-yl]thieno[2,3-b]pyridine-5-carbonitrile] | 330 nM |
| CC1CCCN1C(=O)/C=C/c1cc2c(Nc3ccc4[nH]ccc4c3)c(C#N)cnc2s1 (centres unmarked) [Compound 291, 4-(1H-indol-5-ylamino)-2-[(1E)-3-(2-methylpyrrolidin-1-yl)-3-oxoprop-1-en-1-yl]thieno[2,3-b]pyridine-5-carbonitrile] | 105 nM |
